In this test the target is Thioredoxin (Homo sapiens) (UniProt P10599). Kind of test: TRX disulfide reduction blockade – biochemical, insulin turbidity, dry powder samples, counter-screen for PDI inhibitor project, dose response (AID 652214). The conditions noted are these: purified thioredoxin, insulin reduction turbidity OD650.

Activity calls are given as the source filed them.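 The calls were made as follows: active = AC50 of 30 µM or below; inactive = AC50 above 30 µM.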

The source of these data is PubChem BioAssay AID652214 (Broad Institute, 2013).

Thioredoxin (Homo sapiens), sequence (P10599 whole entry, looked up): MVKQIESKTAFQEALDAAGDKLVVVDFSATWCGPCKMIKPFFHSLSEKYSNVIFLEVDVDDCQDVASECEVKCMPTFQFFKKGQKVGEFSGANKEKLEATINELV

Take `CCOC(=O)c1c(CN2CCN(CCO)CC2)n(-c2ccccc2)c2cc(Br)c(O)cc12`: the AC50 was > 30 µM (inactive). As for `CCOC(=O)C1(CCOc2ccccc2)CCN(Cc2ccc(OC)c(Cl)c2)CC1`, the AC50 was > 30 µM (inactive). As to `CCOC(=O)C1(CCOc2ccccc2)CCN(Cc2ccc(O)cc2)CC1`, the AC50 was > 30 µM (inactive). With `CCOC(=O)C1(CCOc2ccccc2)CCN(C(=O)c2ccc(O)c(Cl)c2)CC1`, the AC50 was > 30 µM (inactive).

On to `C/C1=C\C[C@H](OC(=O)c2ccc(O)cc2)/C(C)=C/[C@@H](O)C(C)(C)CCC1`, for which the AC50 is > 30 µM (inactive). The value for `CC(C)OC(=O)C1(CCOc2ccccc2)CCN(Cc2ccc(O)c(Cl)c2)CC1` was > 30 µM (inactive); that for `CCN(C)C(=O)C1(CCOc2ccccc2)CCN(Cc2ccc(O)c(Cl)c2)CC1` was > 30 µM (inactive). To `C/C1=C\[C@@H](O)C(C)(C)CCCC2(C)OC2C[C@@H]1OC(=O)c1ccc(O)cc1` (some centres not stated) belongs 3 µM; to `O=C(NC1CCCC1)C1(CCOc2ccccc2)CCN(Cc2ccc(O)c(Cl)c2)CC1`, > 30 µM (inactive). With `CCOC(=O)C1(CCOc2ccccc2)CCN(Cc2ccc(O)c(Cl)c2)CC1`, the AC50 was > 30 µM (inactive). Take `O=C(Nc1ccccc1)C1(CCOc2ccccc2)CCN(Cc2ccc(O)c(Cl)c2)CC1`: the AC50 was > 30 µM (inactive). The value for `CC(C)(C)OC(=O)C1(CCOc2ccccc2)CCN(Cc2ccc(O)c(Cl)c2)CC1` was > 30 µM (inactive).
